For orientation: AC50 means the concentration at which the activity in the assay is half-maximal.

Seven compounds from ChEMBL document CHEMBL5291721, “A preclinical secondary pharmacology resource illuminates target-adverse drug reaction associations of marketed drugs” (Nat Commun, 2023) can be followed below.

Test [1] deals with T1, Alpha-1A adrenergic receptor (Homo sapiens, UniProt P35348).
T1 sequence (P35348 whole entry): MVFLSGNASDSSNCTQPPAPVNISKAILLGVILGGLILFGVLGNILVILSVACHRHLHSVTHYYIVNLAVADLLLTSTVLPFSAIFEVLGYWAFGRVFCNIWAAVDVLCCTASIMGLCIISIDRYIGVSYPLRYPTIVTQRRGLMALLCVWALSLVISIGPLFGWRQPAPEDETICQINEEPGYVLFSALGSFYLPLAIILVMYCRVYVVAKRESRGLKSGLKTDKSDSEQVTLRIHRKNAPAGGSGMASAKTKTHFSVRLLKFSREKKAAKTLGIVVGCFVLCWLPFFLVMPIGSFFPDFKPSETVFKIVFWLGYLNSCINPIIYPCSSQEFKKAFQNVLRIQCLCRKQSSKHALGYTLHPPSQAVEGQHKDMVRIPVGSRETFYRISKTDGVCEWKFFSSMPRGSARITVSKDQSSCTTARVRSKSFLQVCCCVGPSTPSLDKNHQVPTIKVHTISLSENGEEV
Format: functional, cell-based.

The target in test [2] is T2, Alpha-2B adrenergic receptor (Homo sapiens, UniProt P18089).
T2 sequence (P18089 whole entry): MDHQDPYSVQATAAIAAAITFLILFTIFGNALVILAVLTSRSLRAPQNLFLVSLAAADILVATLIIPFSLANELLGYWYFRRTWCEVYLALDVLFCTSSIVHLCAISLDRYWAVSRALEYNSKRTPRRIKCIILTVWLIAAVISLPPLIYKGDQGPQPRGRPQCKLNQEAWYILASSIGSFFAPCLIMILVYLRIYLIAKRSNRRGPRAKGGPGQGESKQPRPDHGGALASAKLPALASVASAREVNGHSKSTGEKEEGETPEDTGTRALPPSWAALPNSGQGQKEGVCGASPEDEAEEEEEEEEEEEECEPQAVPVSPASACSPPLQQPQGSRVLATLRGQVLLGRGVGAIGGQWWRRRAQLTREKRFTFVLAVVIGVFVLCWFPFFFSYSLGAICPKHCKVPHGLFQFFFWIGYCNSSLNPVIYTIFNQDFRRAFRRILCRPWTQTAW

A further test addresses T3, Glucocorticoid receptor (Homo sapiens, UniProt P04150).
T3 sequence (P04150 whole entry): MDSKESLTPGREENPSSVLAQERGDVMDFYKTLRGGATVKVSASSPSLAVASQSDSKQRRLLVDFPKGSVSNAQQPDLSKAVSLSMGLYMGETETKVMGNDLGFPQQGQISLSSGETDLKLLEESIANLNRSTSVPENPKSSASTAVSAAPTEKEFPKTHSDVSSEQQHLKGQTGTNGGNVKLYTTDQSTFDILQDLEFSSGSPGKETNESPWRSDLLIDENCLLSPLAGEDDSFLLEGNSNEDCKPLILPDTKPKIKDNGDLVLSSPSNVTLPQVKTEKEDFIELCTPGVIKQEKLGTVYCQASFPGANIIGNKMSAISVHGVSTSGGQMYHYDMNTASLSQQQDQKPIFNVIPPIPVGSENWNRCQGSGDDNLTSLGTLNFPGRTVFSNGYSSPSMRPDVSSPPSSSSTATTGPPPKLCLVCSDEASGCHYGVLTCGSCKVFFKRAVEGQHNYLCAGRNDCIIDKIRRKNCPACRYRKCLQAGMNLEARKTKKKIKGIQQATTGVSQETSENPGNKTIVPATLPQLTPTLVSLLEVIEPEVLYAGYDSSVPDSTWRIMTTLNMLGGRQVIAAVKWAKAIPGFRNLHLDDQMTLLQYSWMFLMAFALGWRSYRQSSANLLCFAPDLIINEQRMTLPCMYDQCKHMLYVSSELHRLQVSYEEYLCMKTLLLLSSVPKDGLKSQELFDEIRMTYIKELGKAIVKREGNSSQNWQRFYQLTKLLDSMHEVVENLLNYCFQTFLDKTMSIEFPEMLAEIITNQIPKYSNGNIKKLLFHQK

For test [3], the target named is 5-hydroxytryptamine receptor 2B (Homo sapiens, UniProt P41595). It counts as functional, cell-based.
In a further test the target is Histamine H1 receptor (Homo sapiens, UniProt P35367).
For another test, the target named is T4, Progesterone receptor (Homo sapiens, UniProt P06401).
T4 sequence (P06401 whole entry): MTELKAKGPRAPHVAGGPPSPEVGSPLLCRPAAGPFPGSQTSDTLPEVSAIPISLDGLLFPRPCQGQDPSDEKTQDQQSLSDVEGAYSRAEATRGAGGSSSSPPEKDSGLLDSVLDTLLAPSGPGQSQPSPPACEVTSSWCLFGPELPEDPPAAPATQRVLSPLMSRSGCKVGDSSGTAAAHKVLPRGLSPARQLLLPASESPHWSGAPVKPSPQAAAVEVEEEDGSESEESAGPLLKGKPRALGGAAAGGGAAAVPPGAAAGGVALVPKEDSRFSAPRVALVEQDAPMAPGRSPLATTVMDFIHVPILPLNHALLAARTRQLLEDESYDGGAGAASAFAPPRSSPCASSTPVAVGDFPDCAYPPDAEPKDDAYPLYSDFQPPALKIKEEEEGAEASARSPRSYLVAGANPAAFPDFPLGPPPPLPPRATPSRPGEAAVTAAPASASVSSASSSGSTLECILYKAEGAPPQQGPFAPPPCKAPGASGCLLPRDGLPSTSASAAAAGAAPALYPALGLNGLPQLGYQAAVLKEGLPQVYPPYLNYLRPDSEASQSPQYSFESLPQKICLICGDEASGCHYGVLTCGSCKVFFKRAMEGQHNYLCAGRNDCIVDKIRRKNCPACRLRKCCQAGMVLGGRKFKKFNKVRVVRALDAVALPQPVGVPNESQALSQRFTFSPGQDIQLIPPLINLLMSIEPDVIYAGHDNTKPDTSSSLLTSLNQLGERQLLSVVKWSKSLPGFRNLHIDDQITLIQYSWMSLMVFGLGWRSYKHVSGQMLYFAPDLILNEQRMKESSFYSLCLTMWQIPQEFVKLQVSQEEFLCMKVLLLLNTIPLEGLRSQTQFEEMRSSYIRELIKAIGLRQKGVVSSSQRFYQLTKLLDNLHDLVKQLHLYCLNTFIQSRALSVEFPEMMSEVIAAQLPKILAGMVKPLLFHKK
It counts as functional.
Further: assay procedure not described here.

Chain of 5-hydroxytryptamine receptor 2B (P41595 whole entry): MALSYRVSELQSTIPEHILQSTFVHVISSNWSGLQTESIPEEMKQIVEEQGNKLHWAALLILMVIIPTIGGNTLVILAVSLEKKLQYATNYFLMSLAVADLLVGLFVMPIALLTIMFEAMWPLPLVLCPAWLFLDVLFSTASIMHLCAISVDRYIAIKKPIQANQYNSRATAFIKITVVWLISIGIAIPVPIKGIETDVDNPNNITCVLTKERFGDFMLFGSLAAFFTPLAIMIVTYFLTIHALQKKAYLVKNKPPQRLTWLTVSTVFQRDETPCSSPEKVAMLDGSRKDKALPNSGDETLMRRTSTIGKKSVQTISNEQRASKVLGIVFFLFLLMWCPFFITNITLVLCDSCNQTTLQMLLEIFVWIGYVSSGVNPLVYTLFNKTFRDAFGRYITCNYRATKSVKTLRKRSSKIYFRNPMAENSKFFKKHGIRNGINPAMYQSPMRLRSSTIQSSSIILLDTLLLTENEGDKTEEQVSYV
Chain of Histamine H1 receptor (P35367 whole entry): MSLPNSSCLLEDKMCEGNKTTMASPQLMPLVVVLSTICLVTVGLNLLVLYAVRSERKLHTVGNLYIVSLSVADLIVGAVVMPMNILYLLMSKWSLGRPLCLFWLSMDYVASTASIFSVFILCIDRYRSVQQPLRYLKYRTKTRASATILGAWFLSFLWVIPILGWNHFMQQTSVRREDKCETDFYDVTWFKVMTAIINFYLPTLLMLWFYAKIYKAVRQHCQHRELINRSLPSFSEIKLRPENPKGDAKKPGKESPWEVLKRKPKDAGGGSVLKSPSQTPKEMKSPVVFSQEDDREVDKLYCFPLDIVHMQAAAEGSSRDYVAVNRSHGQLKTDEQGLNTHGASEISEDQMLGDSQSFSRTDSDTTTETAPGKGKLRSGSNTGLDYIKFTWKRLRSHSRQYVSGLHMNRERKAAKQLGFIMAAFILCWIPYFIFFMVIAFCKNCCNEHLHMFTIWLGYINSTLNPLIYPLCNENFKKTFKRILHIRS

On to `CCN(CC)Cc1nccn1-c1ccc([N+](=O)[O-])cc1C(=O)c1ccccc1Cl` [NIZOFENONE], for which the half-maximal activity concentration (AC50) in test [1] is above 30 µM; in test [2] it was above 10 µM; at Glucocorticoid receptor, above 30 µM; in test [3], above 30 µM; on Histamine H1 receptor, above 30 µM; at Progesterone receptor, above 30 µM.
Take `CS(=O)(=O)NC(=O)CCC/C=C\C[C@H]1C(=O)C[C@@H](O)[C@@H]1/C=C/[C@@H](O)COc1ccccc1` [SULPROSTONE]: the AC50 (in test [1]; in test [2]; at Glucocorticoid receptor; in test [3]; on Histamine H1 receptor; on Progesterone receptor) was above 30 µM throughout.
Turning to `CCCCC[C@H](O)CC[C@@H]1[C@H]2Cc3cccc(OCC(=O)O)c3C[C@H]2C[C@H]1O` [TREPROSTINIL], the AC50 (in test [1]; in test [2]; at Glucocorticoid receptor; in test [3]; on Histamine H1 receptor; on Progesterone receptor) was above 30 µM each time.
As to `CC1=C(/C=C/C(C)=C/C=C/C(C)=C/C(=O)Oc2c(C)c(C)c3c(c2C)CCC(C)(CCCC(C)CCCC(C)CCCC(C)C)O3)C(C)(C)CCC1` (configuration not stated) [TRETINOIN TOCOFERIL], the AC50 in test [1] is above 30 µM; in test [2], above 30 µM; on Glucocorticoid receptor it was above 30 µM; in test [3], above 30 µM; on Histamine H1 receptor it was above 30 µM; at Progesterone receptor it was 19 µM.
Regarding `CN(C)CCOCC(=O)NC12CC3CC(CC(C3)C1)C2` [TROMANTADINE], the half-maximal activity concentration (AC50) (in test [1]; in test [2]; on Glucocorticoid receptor; in test [3]; at Histamine H1 receptor; on Progesterone receptor) was above 30 µM in each case.
Turning to `CCCCCCCC(=O)CC[C@@H]1[C@@H](C/C=C\CCCC(=O)O)[C@@H](O)C[C@H]1O` [UNOPROSTONE], the half-maximal activity concentration (AC50) (in test [1]; in test [2]; at Glucocorticoid receptor; in test [3]; at Histamine H1 receptor; on Progesterone receptor) was above 30 µM in each case.
On to `OCC(CO)N[C@H]1C[C@](O)(CO)[C@@H](O)[C@H](O)[C@H]1O` [VOGLIBOSE], for which the AC50 (in test [1]; in test [2]; at Glucocorticoid receptor; in test [3]; at Histamine H1 receptor; at Progesterone receptor) was above 30 µM each time.
